# Measured values as given in the NIST ThermoML archive (doi:10.1021/je050288d).
# ± gives the expanded uncertainty stated by the source.
# Settings: Gas
smiles,measurement,setting,value
O [water],viscosity,"297.39 K, Mass density=0.0402 kg/m3",0.009665 ± 9.5e-05 mPa·s
same,viscosity,"297.88 K, Mass density=0.0668 kg/m3",0.009654 ± 9.5e-05 mPa·s
same,viscosity,"298.02 K, Mass density=0.0247 kg/m3",0.009675 ± 9.5e-05 mPa·s
same,viscosity,"298.08 K, Mass density=0.0368 kg/m3",0.009683 ± 9.5e-05 mPa·s
same,viscosity,"298.17 K, Mass density=0.1654 kg/m3",0.009693 ± 9.5e-05 mPa·s
same,viscosity,"298.3 K, Mass density=0.0186 kg/m3",0.0097 ± 9.5e-05 mPa·s
same,viscosity,"298.38 K, Mass density=0.1081 kg/m3",0.009686 ± 9.5e-05 mPa·s
same,viscosity,"298.57 K, Mass density=0.1973 kg/m3",0.009684 ± 9.5e-05 mPa·s
same,viscosity,"299.06 K, Mass density=0.0793 kg/m3",0.009709 ± 9.5e-05 mPa·s
same,viscosity,"300.07 K, Mass density=0.2351 kg/m3",0.009725 ± 9.5e-05 mPa·s
same,viscosity,"310.8 K, Mass density=0.0186 kg/m3",0.01013 ± 9.8e-05 mPa·s
same,viscosity,"310.87 K, Mass density=0.0368 kg/m3",0.01013 ± 9.8e-05 mPa·s
same,viscosity,"310.96 K, Mass density=0.0668 kg/m3",0.01011 ± 9.8e-05 mPa·s
same,viscosity,"311.24 K, Mass density=0.1654 kg/m3",0.01014 ± 9.8e-05 mPa·s
same,viscosity,"311.3 K, Mass density=0.0793 kg/m3",0.01013 ± 9.8e-05 mPa·s
same,viscosity,"311.39 K, Mass density=0.1081 kg/m3",0.01013 ± 9.8e-05 mPa·s
same,viscosity,"311.45 K, Mass density=0.0402 kg/m3",0.01015 ± 9.8e-05 mPa·s
same,viscosity,"311.77 K, Mass density=0.0247 kg/m3",0.01015 ± 9.8e-05 mPa·s
same,viscosity,"312.25 K, Mass density=0.2351 kg/m3",0.01014 ± 9.8e-05 mPa·s
same,viscosity,"313.01 K, Mass density=0.1973 kg/m3",0.01017 ± 9.8e-05 mPa·s
same,viscosity,"324.45 K, Mass density=0.0668 kg/m3",0.01059 ± 0.0001 mPa·s
same,viscosity,"324.54 K, Mass density=0.0247 kg/m3",0.0106 ± 0.0001 mPa·s
same,viscosity,"324.54 K, Mass density=0.1654 kg/m3",0.0106 ± 0.0001 mPa·s
same,viscosity,"324.74 K, Mass density=0.2351 kg/m3",0.01058 ± 0.0001 mPa·s
same,viscosity,"325 K, Mass density=0.0402 kg/m3",0.01062 ± 0.0001 mPa·s
same,viscosity,"325.15 K, Mass density=0.1973 kg/m3",0.01059 ± 0.0001 mPa·s
same,viscosity,"325.42 K, Mass density=0.1081 kg/m3",0.01062 ± 0.0001 mPa·s
same,viscosity,"325.96 K, Mass density=0.0368 kg/m3",0.01065 ± 0.0001 mPa·s
same,viscosity,"331.18 K, Mass density=0.0186 kg/m3",0.01083 ± 0.0001 mPa·s
same,viscosity,"331.47 K, Mass density=0.0793 kg/m3",0.01084 ± 0.0001 mPa·s
same,viscosity,"338.02 K, Mass density=0.1973 kg/m3",0.01103 ± 0.0001 mPa·s
same,viscosity,"338.38 K, Mass density=0.2351 kg/m3",0.01105 ± 0.0001 mPa·s
same,viscosity,"338.47 K, Mass density=0.0247 kg/m3",0.01108 ± 0.0001 mPa·s
same,viscosity,"338.71 K, Mass density=0.0368 kg/m3",0.0111 ± 0.0001 mPa·s
same,viscosity,"338.79 K, Mass density=0.0793 kg/m3",0.01108 ± 0.0001 mPa·s
same,viscosity,"338.83 K, Mass density=0.0186 kg/m3",0.01111 ± 0.0001 mPa·s
same,viscosity,"339.39 K, Mass density=0.0402 kg/m3",0.01112 ± 0.0001 mPa·s
same,viscosity,"340.17 K, Mass density=0.1081 kg/m3",0.01113 ± 0.0001 mPa·s
same,viscosity,"341.28 K, Mass density=0.0668 kg/m3",0.01117 ± 0.0001 mPa·s
same,viscosity,"352.03 K, Mass density=0.1973 kg/m3",0.01153 ± 0.00011 mPa·s
same,viscosity,"352.05 K, Mass density=0.1654 kg/m3",0.01154 ± 0.00011 mPa·s
same,viscosity,"352.17 K, Mass density=0.0668 kg/m3",0.01156 ± 0.00011 mPa·s
same,viscosity,"352.37 K, Mass density=0.2351 kg/m3",0.01154 ± 0.00011 mPa·s
same,viscosity,"352.75 K, Mass density=0.0186 kg/m3",0.0116 ± 0.00011 mPa·s
same,viscosity,"352.77 K, Mass density=0.0402 kg/m3",0.0116 ± 0.00011 mPa·s
same,viscosity,"352.79 K, Mass density=0.0793 kg/m3",0.01159 ± 0.00011 mPa·s
same,viscosity,"352.91 K, Mass density=0.0247 kg/m3",0.0116 ± 0.00011 mPa·s
same,viscosity,"353.16 K, Mass density=0.1081 kg/m3",0.0116 ± 0.00011 mPa·s
same,viscosity,"353.6 K, Mass density=0.0368 kg/m3",0.01163 ± 0.00011 mPa·s
same,viscosity,"365.86 K, Mass density=0.2351 kg/m3",0.01203 ± 0.00011 mPa·s
same,viscosity,"366.29 K, Mass density=0.1973 kg/m3",0.01205 ± 0.00011 mPa·s
same,viscosity,"366.37 K, Mass density=0.0247 kg/m3",0.01209 ± 0.00011 mPa·s
same,viscosity,"366.48 K, Mass density=0.1654 kg/m3",0.01207 ± 0.00011 mPa·s
same,viscosity,"366.77 K, Mass density=0.1081 kg/m3",0.01209 ± 0.00011 mPa·s
